{"source": "paper PMC12679610", "about": "“Impact of supersaturation on growth, critical radius, and size in neomycin nanoparticle crystallization using anti-solvent and CTAB” (RSC Advances, 2025)", "key": {"[1]": {"assay": "Induction time measurement by in situ turbidimeter (antisolvent crystallization)", "format": "physicochemical", "settings": "CTAB 0.6 g kg^−1, 25 °C", "procedure": "(§1) In this section, the method for the synthesis of neomycin nanoparticles is explained in detail. First, an exact amount of neomycin powder (purity ≥ 95%) was weighed using a digital analytical balance (accuracy: […]) based on the desired equilibrium concentration. The weighed neomycin was then added to 10 g of double-distilled water (25 °C). To ensure complete dissolution, the mixture was homogenized using a magnetic stirrer at controlled speeds of 300, 350, 400, and 450 rpm for 20 minutes. This range of stirring speeds was selected to investigate the effect of shear force on solution homogeneity. After confirming the homogeneity of the neomycin solution, a predetermined amount of CTAB surfactant with a concentration established from prior studies was added to the beaker. To achieve optimal mixing, the stirring system was activated at a constant speed between 300 and 450 rpm, and the mixing process continued until equilibrium was reached. The solution temperature was continuously monitored using a calibrated digital thermometer (±0.1 °C). A turbidity sensor was installed 2 cm from the crystallizer wall to measure changes in turbidity. Pure acetone (HPLC grade) was added dropwise (0.02 mL per drop) at 5-minute intervals. The first signs of physical change (e.g., localized cloudiness) were recorded as the initial saturation point. Acetone addition continued until stable turbidity (supersaturation) was achieved under isothermal conditions (25 °C). The induction time (the interval between initial saturation and supersaturation), as clearly depicted in Fig. 1, Section C (the induction time segment of steps 1 to 4), was measure using a synchronized turbidimeter and reaction timer data. To ensure reproducibility, the entire process was repeated in four independent trials under controlled conditions (constant temperature, humidity, and lighting).\nInduction time represents a key parameter in crystallization processes, being predominantly influenced by three factors of supersaturation, temperature, and agitation rate.[29,32] This parameter characterizes the time interval between the onset of initial physical changes (saturated state) and the complete formation of a turbid phase (supersaturated state) within the system. Investigations indicate that both the optimal agitation speed and the application of dynamic shock have a significant influence on the system's supersaturation level.[29,33,35,36] A sudden increase in agitation rate initially induces localized supersaturation reduction through turbulence generation at the interface between unstable and metastable zones. […] CTAB modulates the process by reducing surface energy and stabilizing subcritical clusters, which shortens the nucleation time and broadened the metastable zone. Agitation dynamics initially cause a temporary decrease in localized supersaturation (dynamic shock), followed by a stabilization phase that enables controlled crystal growth.\nMethodologically, induction time was measured using both visual observation and in situ turbidimetry."}, "[2]": {"assay": "Solubility of neomycin sulfate in water-acetone in the presence of CTAB", "format": "physicochemical", "procedure": "as §1\nThis study investigated the solubility enhancement of neomycin in the presence of CTAB stabilizer through controlled dynamic shock application. In contrast to the reference study,[29] which utilized PVP at a mixing speed of 300 rpm, the present experimental design involved the addition of 0.3 g neomycin to a 10 g solvent–antisolvent mixture under 350 rpm agitation, incorporating intermittent dynamic shocks consisting of 3-second pulses at 380 rpm. […] This significant improvement stems from synergistic effects between: (1) CTAB's molecular interactions (ionic complexation with neomycin molecules, surface tension reduction, and stable colloidal environment through spherical micelle formation) and (2) dynamic shock-induced phenomena (enhanced antisolvent penetration and uniform stabilizer distribution).[73] […] The findings underscore the critical importance of concurrent optimization of physicochemical parameters in antisolvent crystallization processes for pharmaceutical nanoparticles.[74]\nThis study comprehensively investigated the influence of CTAB surfactant on neomycin crystallization. […] The supersaturation (S), as the primary driving force, directly affects the induction time, critical radius, growth rate, solubility, nanoparticle size, and nucleation mechanism.[33] CTAB operates through selective adsorption on crystalline surfaces, substantially influencing the nucleation pathway.[75,76] […] Quantitative data for these parameters are presented in Table 2, with the growth rate (intensity %) and nanoparticle size data being experimentally derived from DLS analysis."}, "[3]": {"parameters": "method as in PMID 40028493", "settings": "PVP as stabilizer, cited from earlier work"}}, "note": "Like-named read-outs stand apart in the source and are kept apart here.", "data": [{"smiles": "NC[C@@H]1O[C@H](O[C@H]2[C@@H](O)[C@H](O[C@@H]3[C@@H](O)[C@H](N)C[C@H](N)[C@H]3O[C@H]3O[C@H](CN)[C@@H](O)[C@H](O)[C@H]3N)O[C@@H]2CO)[C@H](N)[C@@H](O)[C@@H]1O.O=S(=O)(O)O", "note": "[neomycin sulfate]", "values": [{"measurement": "Induction time", "setting": "[1]; 300 rpm, initial neomycin 20 g kg^−1, S 1.18", "result": 112, "unit": "s"}, {"measurement": "Induction time", "setting": "[1]; 300 rpm, initial neomycin 20 g kg^−1, S 1.33", "result": 91, "unit": "s"}, {"measurement": "Induction time", "setting": "[1]; 300 rpm, initial neomycin 20 g kg^−1, S 1.45", "result": 86, "unit": "s"}, {"measurement": "Induction time", "setting": "[1]; 300 rpm, initial neomycin 20 g kg^−1, S 1.66", "result": 79, "unit": "s"}, {"measurement": "Induction time", "setting": "[1]; 350 rpm, initial neomycin 30 g kg^−1, S 1.2", "result": 101, "unit": "s"}, {"measurement": "Induction time", "setting": "[1]; 350 rpm, initial neomycin 30 g kg^−1, S 1.25", "result": 94, "unit": "s"}, {"measurement": "Induction time", "setting": "[1]; 350 rpm, initial neomycin 30 g kg^−1, S 1.28", "result": 89, "unit": "s"}, {"measurement": "Induction time", "setting": "[1]; 350 rpm, initial neomycin 30 g kg^−1, S 1.43", "result": 81, "unit": "s"}, {"measurement": "Induction time", "setting": "[1]; 350 rpm, initial neomycin 30 g kg^−1, S 1.67", "result": 74, "unit": "s"}, {"measurement": "Induction time", "setting": "[1]; 400 rpm, initial neomycin 40 g kg^−1, S 1.29", "result": 99, "unit": "s"}, {"measurement": "Induction time", "setting": "[1]; 400 rpm, initial neomycin 40 g kg^−1, S 1.379", "result": 96, "unit": "s"}, {"measurement": "Induction time", "setting": "[1]; 400 rpm, initial neomycin 40 g kg^−1, S 1.48", "result": 83, "unit": "s"}, {"measurement": "Induction time", "setting": "[1]; 400 rpm, initial neomycin 40 g kg^−1, S 1.66", "result": 76, "unit": "s"}, {"measurement": "Induction time", "setting": "[1]; 400 rpm, initial neomycin 40 g kg^−1, S 1.9", "result": 72, "unit": "s"}, {"measurement": "Induction time", "setting": "[1]; 450 rpm, initial neomycin 50 g kg^−1, S 1.351", "result": 90, "unit": "s"}, {"measurement": "Induction time", "setting": "[1]; 450 rpm, initial neomycin 50 g kg^−1, S 1.408", "result": 84, "unit": "s"}, {"measurement": "Induction time", "setting": "[1]; 450 rpm, initial neomycin 50 g kg^−1, S 1.47", "result": 77, "unit": "s"}, {"measurement": "Induction time", "setting": "[1]; 450 rpm, initial neomycin 50 g kg^−1, S 1.666", "result": 70, "unit": "s"}, {"measurement": "Induction time", "setting": "[1]; 450 rpm, initial neomycin 50 g kg^−1, S 1.785", "result": 64, "unit": "s"}, {"measurement": "Solubility", "setting": "[2]; 300 rpm, initial neomycin 20 g kg^−1, S 1.18, CTAB 0.6 g kg^−1, 25 °C", "result": 17, "unit": "g/kg"}, {"measurement": "Solubility", "setting": "[2]; 300 rpm, initial neomycin 20 g kg^−1, S 1.21, CTAB 0.6 g kg^−1, 25 °C", "result": 16, "unit": "g/kg"}, {"measurement": "Solubility", "setting": "[2]; 300 rpm, initial neomycin 20 g kg^−1, S 1.33, CTAB 0.6 g kg^−1, 25 °C", "result": 15, "unit": "g/kg"}, {"measurement": "Solubility", "setting": "[2]; 300 rpm, initial neomycin 20 g kg^−1, S 1.45, CTAB 0.6 g kg^−1, 25 °C", "result": 13.8, "unit": "g/kg"}, {"measurement": "Solubility", "setting": "[2]; 300 rpm, initial neomycin 20 g kg^−1, S 1.66, CTAB 0.6 g kg^−1, 25 °C", "result": 12, "unit": "g/kg"}, {"measurement": "Solubility", "setting": "[2]; 350 rpm, initial neomycin 30 g kg^−1, S 1.2, CTAB 0.6 g kg^−1, 25 °C", "result": 25, "unit": "g/kg"}, {"measurement": "Solubility", "setting": "[2]; 350 rpm, initial neomycin 30 g kg^−1, S 1.25, CTAB 0.6 g kg^−1, 25 °C", "result": 24, "unit": "g/kg"}, {"measurement": "Solubility", "setting": "[2]; 350 rpm, initial neomycin 30 g kg^−1, S 1.28, CTAB 0.6 g kg^−1, 25 °C", "result": 23.5, "unit": "g/kg"}, {"measurement": "Solubility", "setting": "[2]; 350 rpm, initial neomycin 30 g kg^−1, S 1.43, CTAB 0.6 g kg^−1, 25 °C", "result": 21.1, "unit": "g/kg"}, {"measurement": "Solubility", "setting": "[2]; 400 rpm, initial neomycin 40 g kg^−1, S 1.29, CTAB 0.6 g kg^−1, 25 °C", "result": 31, "unit": "g/kg"}, {"measurement": "Solubility", "setting": "[2]; 400 rpm, initial neomycin 40 g kg^−1, S 1.379, CTAB 0.6 g kg^−1, 25 °C", "result": 29, "unit": "g/kg"}, {"measurement": "Solubility", "setting": "[2]; 400 rpm, initial neomycin 40 g kg^−1, S 1.48, CTAB 0.6 g kg^−1, 25 °C", "result": 27, "unit": "g/kg"}, {"measurement": "Solubility", "setting": "[2]; 400 rpm, initial neomycin 40 g kg^−1, S 1.66, CTAB 0.6 g kg^−1, 25 °C", "result": 24, "unit": "g/kg"}, {"measurement": "Solubility", "setting": "[2]; 400 rpm, initial neomycin 40 g kg^−1, S 1.9, CTAB 0.6 g kg^−1, 25 °C", "result": 21, "unit": "g/kg"}, {"measurement": "Solubility", "setting": "[2]; 450 rpm, initial neomycin 50 g kg^−1, S 1.351, CTAB 0.6 g kg^−1, 25 °C", "result": 37, "unit": "g/kg"}, {"measurement": "Solubility", "setting": "[2]; 450 rpm, initial neomycin 50 g kg^−1, S 1.47, CTAB 0.6 g kg^−1, 25 °C", "result": 34, "unit": "g/kg"}, {"measurement": "Solubility", "setting": "[2]; 450 rpm, initial neomycin 50 g kg^−1, S 1.666, CTAB 0.6 g kg^−1, 25 °C", "result": 30, "unit": "g/kg"}, {"measurement": "Solubility", "setting": "[2]; 450 rpm, initial neomycin 50 g kg^−1, S 1.785, CTAB 0.6 g kg^−1, 25 °C", "result": 28, "unit": "g/kg"}, {"measurement": "Interfacial energy, Motahari et al.", "setting": "[3]; initial neomycin 20 g kg solvent^−1", "result": 7.68, "unit": "mJ m^−2"}, {"measurement": "Interfacial energy, Motahari et al.", "setting": "[3]; initial neomycin 30 g kg solvent^−1", "result": 8.056, "unit": "mJ m^−2"}]}]}
